Measurements reported in US20230348487A1, “2-AMINOPYRIMIDINE COMPOUND AND PHARMACEUTICAL COMPOSITION THEREOF AND APPLICATION THEREOF” (GUANGZHOU SALUSTIER BIOSCIENCES CO., LTD., priority 2021, published 2023).
Where “and” joins values, the source holds several entries; their conditions need not be identical. Identical values can stand only once. Like-named read-outs stand apart in the source and are kept apart here.

How the values were obtained:
JAK2 = JAK2 (Homo sapiens (Human), UniProt O60674); experiment: Z′-Lyte kinase inhibitory activity test; assay type: biochemical
Method: (§1) Test method: Firstly, test compounds were prepared into 10 mM stock solution with DMSO, and continuously diluted into 10 concentrations at a 3-fold gradient for later use. 5X reaction buffer was diluted with deionized water into 1×reaction buffer (50 mM HEPES pH 7.5, 0.01% Brij-35, 10 mM MgCl2, 1 mM EGTA), which was used to prepare a mixture of kinase and peptide substrate, as well as a phosphorylated peptide substrate solution. The kinase concentration was determined based on enzyme titration, and the final concentration of peptide substrate and phosphorylated peptide substrate was 2 μM. 5 μL of mixture substrate of kinase and peptide substrate was added to each well on the 384 well plate. Then 5 nL of the test compound (starting with a final concentration of 10 μM) was added with an Echo520 Sampler. […] An additional 100% phosphorylation well (5 μL phosphorylated peptide substrate solution), a 0% phosphorylated well (5 μL of a mixture of kinase and peptide substrate, without test compounds and ATP), and a 0% inhibitory well (5 μL of a mixture of kinase and peptide substrate and appropriate concentration of ATP) were set as control. Two repeats were set for each concentration. The above reaction system was incubated at 30° C. for 1.5 hours. […] 2.5 μL of the diluted mixture was added to each well and the system was incubated at 30° C. for another 1 hour. […] The substrate phosphorylation rate was obtained by calculating the ratio, and the activity of the kinase and the effect of the inhibitor on the kinase was further calculated. Every experiment was repeated at least three times.

[1] = tested on: human T lymphocyte leukemia cell line HuT78; experiment: CCK-8 in vitro proliferation inhibition; assay type: cell-based; conditions: read-out: Inhibitory activity (IC50) on cell proliferation, HUT78
Method: (§2) Cell lines: human chronic myeloid leukemia cell line K562, human acute myeloid leukemia cell line U937, human T lymphocyte leukemia cell line HuT78, and human T lymphoblastic lymphoma cell line Jurkat. Cells were purchased from the Chinese Academy of Sciences Stem Cell Bank or ATCC.
(§3) […] were cultured overnight and suspended cells were directly stimulated with drugs. […] Two repeats were set for each concentration, with a final volume of 200 μL. […] The absorbance values at 450 nm and 650 nm were measured using a microplate reader, and the increment Z (A450-A650) was derived. The inhibitory rate of drugs on cell growth was calculated by GraphPad Prism 8.0.0 through the following formula:
(§4) Inhibition rate (%)(ODcontrol−ODdosing)/ODcontrol×100%
(§5) The half inhibitory concentration (IC50) was calculated. Every experiment was repeated at least three times.

[2] = tested on: human T lymphoblastic lymphoma cell line Jurkat; experiment: CCK-8 in vitro proliferation inhibition; assay type: cell-based; conditions: 72 hours, read-out: Inhibitory activity (IC50) on cell proliferation, JURKAT
Method: as §2, §3, §4, §5

[3] = tested on: human chronic myeloid leukemia cell line K562; experiment: CCK-8 in vitro proliferation inhibition; assay type: cell-based; conditions: read-out: Inhibitory activity (IC50) on cell proliferation, K562
Method: as §2, §3, §4, §5

JAK3 = JAK3 (Homo sapiens (Human), UniProt P52333); experiment: Z′-Lyte kinase inhibitory activity test; assay type: biochemical; conditions: for JAK3 kinase inhibitory activity and selectivity (in words): summary of Table 3, activity maintained at ATP 1 mM
Method: as §1

TYK2 = TYK2 (Homo sapiens (Human), UniProt P29597); experiment: Z′-Lyte kinase inhibitory activity test; assay type: biochemical; conditions: ATP concentration Km
Method: as §1

JAK1 = JAK1 (Homo sapiens (Human), UniProt P23458); experiment: Z′-Lyte kinase inhibitory activity test; assay type: biochemical; conditions: ATP concentration Km
Method: as §1

[4] = tested on: human acute myeloid leukemia cell line U937; experiment: CCK-8 in vitro proliferation inhibition; assay type: cell-based; conditions: read-out: Inhibitory activity (IC50) on cell proliferation, U937
Method: as §2, §3, §4, §5

JAK1, sequence (P23458 whole entry): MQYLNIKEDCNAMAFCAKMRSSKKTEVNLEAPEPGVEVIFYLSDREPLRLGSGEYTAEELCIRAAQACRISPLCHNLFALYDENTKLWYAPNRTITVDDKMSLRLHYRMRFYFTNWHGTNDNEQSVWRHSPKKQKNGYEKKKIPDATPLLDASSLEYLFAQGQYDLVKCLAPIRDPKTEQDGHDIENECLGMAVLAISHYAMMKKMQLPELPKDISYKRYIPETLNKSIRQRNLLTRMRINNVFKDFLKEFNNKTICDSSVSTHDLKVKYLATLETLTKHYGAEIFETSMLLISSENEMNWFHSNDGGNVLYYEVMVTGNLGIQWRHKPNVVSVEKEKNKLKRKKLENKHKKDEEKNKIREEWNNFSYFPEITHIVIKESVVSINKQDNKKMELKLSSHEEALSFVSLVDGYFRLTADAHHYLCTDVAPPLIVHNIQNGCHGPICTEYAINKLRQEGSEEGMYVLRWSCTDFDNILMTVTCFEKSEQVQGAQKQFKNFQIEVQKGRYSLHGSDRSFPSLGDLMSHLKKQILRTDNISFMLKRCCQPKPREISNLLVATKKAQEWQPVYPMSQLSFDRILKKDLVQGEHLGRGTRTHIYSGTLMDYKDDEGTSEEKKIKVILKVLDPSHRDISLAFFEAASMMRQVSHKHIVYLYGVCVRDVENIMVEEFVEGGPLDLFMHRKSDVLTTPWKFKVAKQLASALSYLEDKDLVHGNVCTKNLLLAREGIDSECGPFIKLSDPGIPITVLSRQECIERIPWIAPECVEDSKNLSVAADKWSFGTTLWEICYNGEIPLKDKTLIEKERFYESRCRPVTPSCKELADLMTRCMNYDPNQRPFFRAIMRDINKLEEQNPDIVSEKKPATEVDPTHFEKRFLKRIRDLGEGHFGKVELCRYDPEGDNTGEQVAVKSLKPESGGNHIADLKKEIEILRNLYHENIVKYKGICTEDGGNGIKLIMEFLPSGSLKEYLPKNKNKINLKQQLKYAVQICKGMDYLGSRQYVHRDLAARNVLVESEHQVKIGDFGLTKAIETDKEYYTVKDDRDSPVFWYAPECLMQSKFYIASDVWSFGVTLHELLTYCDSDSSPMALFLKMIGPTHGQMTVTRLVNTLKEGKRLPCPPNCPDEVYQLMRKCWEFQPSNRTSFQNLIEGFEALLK
TYK2, sequence (P29597 whole entry): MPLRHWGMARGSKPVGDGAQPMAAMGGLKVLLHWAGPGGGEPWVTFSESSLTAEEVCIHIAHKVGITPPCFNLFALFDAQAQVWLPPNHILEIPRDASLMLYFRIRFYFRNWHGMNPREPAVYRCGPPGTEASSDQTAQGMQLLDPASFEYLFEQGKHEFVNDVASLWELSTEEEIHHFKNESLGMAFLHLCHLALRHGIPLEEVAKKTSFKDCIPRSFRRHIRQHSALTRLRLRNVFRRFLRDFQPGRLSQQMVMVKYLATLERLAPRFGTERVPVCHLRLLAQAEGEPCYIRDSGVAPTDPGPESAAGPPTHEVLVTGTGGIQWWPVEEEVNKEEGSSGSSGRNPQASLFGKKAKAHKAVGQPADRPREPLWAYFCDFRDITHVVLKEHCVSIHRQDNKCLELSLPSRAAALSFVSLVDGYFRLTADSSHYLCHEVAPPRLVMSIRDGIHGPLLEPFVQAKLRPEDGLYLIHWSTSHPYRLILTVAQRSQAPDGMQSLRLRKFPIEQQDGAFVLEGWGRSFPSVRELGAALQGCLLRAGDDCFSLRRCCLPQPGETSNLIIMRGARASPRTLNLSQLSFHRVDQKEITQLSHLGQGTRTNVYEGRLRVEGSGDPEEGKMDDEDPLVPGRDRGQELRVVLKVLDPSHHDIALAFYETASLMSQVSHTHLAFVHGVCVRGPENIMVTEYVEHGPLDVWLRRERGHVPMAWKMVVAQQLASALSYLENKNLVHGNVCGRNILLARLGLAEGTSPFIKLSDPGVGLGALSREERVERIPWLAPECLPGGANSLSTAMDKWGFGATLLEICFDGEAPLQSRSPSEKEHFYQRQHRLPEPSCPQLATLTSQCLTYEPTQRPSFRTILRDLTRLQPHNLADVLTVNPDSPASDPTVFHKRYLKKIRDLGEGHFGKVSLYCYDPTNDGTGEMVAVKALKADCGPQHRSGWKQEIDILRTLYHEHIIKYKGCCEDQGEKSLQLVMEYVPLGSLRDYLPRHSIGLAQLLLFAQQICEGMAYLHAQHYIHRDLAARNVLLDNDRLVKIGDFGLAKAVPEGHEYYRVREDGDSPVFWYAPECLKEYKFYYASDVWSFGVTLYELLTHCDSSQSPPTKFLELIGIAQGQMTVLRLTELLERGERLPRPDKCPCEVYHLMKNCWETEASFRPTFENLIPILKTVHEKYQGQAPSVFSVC
JAK3, sequence (P52333 whole entry): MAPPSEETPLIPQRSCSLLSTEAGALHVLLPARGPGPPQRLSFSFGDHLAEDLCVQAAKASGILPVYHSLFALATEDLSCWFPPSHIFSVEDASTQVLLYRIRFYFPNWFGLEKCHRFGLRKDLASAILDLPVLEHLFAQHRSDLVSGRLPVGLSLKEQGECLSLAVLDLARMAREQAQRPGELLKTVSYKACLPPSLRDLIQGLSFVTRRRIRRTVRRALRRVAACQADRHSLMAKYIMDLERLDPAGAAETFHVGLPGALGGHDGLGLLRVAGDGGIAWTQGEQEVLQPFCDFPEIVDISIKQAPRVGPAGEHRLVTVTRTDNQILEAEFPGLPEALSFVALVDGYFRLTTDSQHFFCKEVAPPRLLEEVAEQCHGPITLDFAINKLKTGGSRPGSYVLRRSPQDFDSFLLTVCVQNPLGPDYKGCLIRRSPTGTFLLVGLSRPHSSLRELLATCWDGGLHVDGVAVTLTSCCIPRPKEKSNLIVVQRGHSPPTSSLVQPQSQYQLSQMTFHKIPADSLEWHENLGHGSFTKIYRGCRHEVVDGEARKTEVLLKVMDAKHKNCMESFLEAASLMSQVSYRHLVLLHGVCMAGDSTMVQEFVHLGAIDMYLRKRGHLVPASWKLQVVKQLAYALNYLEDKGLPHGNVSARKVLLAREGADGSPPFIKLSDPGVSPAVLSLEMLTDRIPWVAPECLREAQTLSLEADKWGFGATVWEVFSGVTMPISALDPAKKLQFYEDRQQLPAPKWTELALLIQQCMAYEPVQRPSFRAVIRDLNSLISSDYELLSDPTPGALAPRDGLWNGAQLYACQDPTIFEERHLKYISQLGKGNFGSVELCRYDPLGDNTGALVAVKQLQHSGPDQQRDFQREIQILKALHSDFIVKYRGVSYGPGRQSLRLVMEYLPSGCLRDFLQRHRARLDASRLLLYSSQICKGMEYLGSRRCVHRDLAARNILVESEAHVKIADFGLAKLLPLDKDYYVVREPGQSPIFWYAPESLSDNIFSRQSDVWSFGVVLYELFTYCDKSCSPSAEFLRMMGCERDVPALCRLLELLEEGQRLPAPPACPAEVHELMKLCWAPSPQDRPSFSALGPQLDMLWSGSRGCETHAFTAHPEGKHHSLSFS
JAK2, sequence (O60674 whole entry): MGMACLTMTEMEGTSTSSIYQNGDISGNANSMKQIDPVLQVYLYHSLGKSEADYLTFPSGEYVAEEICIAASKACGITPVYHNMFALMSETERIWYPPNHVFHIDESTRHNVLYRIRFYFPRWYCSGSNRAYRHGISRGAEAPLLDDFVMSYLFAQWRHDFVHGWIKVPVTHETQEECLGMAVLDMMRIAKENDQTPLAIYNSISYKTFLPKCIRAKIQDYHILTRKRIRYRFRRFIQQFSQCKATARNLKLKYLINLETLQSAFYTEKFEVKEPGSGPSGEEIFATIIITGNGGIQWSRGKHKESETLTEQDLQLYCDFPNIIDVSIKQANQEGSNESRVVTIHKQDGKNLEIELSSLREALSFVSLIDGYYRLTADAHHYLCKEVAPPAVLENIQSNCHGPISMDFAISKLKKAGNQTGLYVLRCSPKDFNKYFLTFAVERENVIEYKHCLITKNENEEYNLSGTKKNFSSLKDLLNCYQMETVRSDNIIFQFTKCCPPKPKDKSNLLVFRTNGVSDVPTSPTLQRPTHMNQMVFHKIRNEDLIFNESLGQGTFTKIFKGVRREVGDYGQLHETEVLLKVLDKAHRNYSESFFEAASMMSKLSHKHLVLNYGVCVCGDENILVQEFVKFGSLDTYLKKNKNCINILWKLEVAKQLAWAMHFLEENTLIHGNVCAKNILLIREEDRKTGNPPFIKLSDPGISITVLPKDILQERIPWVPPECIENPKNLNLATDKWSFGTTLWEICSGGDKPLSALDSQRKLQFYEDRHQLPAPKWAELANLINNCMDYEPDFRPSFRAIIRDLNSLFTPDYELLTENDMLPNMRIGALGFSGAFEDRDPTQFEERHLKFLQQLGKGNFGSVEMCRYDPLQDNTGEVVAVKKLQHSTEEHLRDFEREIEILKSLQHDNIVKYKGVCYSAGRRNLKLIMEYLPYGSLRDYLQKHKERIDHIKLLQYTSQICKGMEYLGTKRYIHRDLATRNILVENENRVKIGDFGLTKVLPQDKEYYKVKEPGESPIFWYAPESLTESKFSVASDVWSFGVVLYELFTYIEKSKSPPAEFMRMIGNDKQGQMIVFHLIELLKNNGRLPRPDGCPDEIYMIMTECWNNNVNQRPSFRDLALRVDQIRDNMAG

Compound | IC50 (JAK2; ATP concentration Km) | IC50 ([1]; Homo sapiens, HuT78, 72 hours) | IC50 ([2]; Homo sapiens, Jurkat) | IC50 ([3]; Homo sapiens, K562, 72 hours) | IC50 (JAK3; ATP concentration 1 mM, in μM) | IC50 (JAK3; ATP concentration Km) | IC50 (TYK2) | IC50 (JAK1) | IC50 ([4]; Homo sapiens, U-937, 72 hours) | IC50 (JAK3; ATP concentration 1 mM) | IC50 (JAK2; ATP concentration Km, in μM) | IC50 (JAK1; in μM) | JAK3 kinase inhibitory activity and selectivity (in words) (JAK3) | IC50 (JAK2) | IC50 ([1]; 72 hours) | IC50 [2] | IC50 ([3]; 72 hours) | IC50 ([4]; 72 hours) | IC50 (JAK3)
CN1CCN(C2CCN(c3ccc(Nc4ncc(Cl)c(O[C@@H]5CO[C@H]6[C@@H]5OC[C@H]6O)n4)cc3Cl)CC2)CC1 [LS 4-104] | 0.291 µM | 2420 nM | 2050 nM | 542 nM |  |  |  |  |  |  |  |  |  |  |  |  |  |  | 
COc1cc(Nc2ncc(Cl)c(O[C@@H]3CO[C@H]4[C@@H]3OC[C@H]4O)n2)ccc1N1CCC(N2CCN(C)CC2)CC1 [LS 4-143] | 0.541 µM | 3380 nM | 6340 nM | 354 nM | > 10 µM | 0.0474 µM | 421 nM | 0.618 µM | 739 nM |  |  |  |  |  |  |  |  |  | 
CN1CCN(C2CCN(c3ccc(Nc4ncc(Cl)c(O[C@@H]5CO[C@H]6[C@@H]5OC[C@H]6O)n4)cc3)CC2)CC1 [LS 4-145] | 0.981 µM | 2390 nM | 9030 nM | 822 nM |  | 0.066 µM | 301 nM | 0.471 µM | 516 nM | 4.29 µM |  |  |  |  |  |  |  |  | 
C=CC(=O)Nc1cc(Nc2ncc(Cl)c(O[C@@H]3CO[C@H]4[C@@H]3OC[C@H]4O)n2)c(OC)cc1N1CCC(N2CCN(C)CC2)CC1 [LS 5-3] |  | 8080 nM | 8670 nM | 376 nM |  | 0.133 µM |  |  | 5380 nM |  | > 10 µM | > 10 µM |  |  |  |  |  |  | 
C=CC(=O)Nc1cc(Nc2ncc(Cl)c(O[C@@H]3CO[C@H]4[C@@H]3OC[C@H]4O)n2)ccc1N1CCC(N2CCN(C)CC2)CC1 [LS 5-12, N-(5-((5-chloro-4-(((3R,3aR,6R, 6aR)-6-hydroxyhexahydrofurano[3,2-b]furan-3-yl)oxygen)pyrimidin-2-yl)amino)-2-(4-(4-methylpiperazin-1-yl)piperidin-1-yl)phenyl) acrylamide] |  |  |  |  |  |  | 369 nM | 1.54 µM |  |  |  |  | strong and selective JAK3 kinase inhibitory activity | 1.03 µM | 31.7 nM | 434 nM | 290 nM | 35.9 nM | 
C=CC(=O)Nc1cc(Nc2ncc(Cl)c(O[C@@H]3CO[C@H]4[C@@H]3OC[C@H]4O)n2)ccc1F [LS 5-62] |  |  |  |  |  |  | 860 nM | 1.06 µM |  |  |  |  | strong and selective JAK3 kinase inhibitory activity | 11 µM | 423 nM | 2460 nM | 637 nM | 111 nM | 0.0022 µM and 0.00226 µM
C=CC(=O)Nc1cc(Nc2ncc(Cl)c(O[C@@H]3CO[C@H]4[C@@H]3OC[C@H]4O)n2)ccc1N1CCOCC1 [LS 5-66] | 1.16 µM | 1090 nM | 2640 nM | 1860 nM |  | 0.0059 µM | 335 nM | 1.11 µM | 87.5 nM | 0.0144 µM |  |  | strong and selective JAK3 kinase inhibitory activity |  |  |  |  |  | 
C/C=C/C(=O)Nc1cc(Nc2ncc(Cl)c(O[C@@H]3CO[C@H]4[C@@H]3OC[C@H]4O)n2)ccc1N1CCC(N2CCN(C)CC2)CC1 [LS 5-72] | 1.54 µM | 928 nM | 2780 nM | 2760 nM |  | 0.0905 µM | 430 nM | 2.67 µM | 524 nM | 4.38 µM |  |  |  |  |  |  |  |  | 
C=C(C)C(=O)Nc1cc(Nc2ncc(Cl)c(O[C@@H]3CO[C@H]4[C@@H]3OC[C@H]4O)n2)ccc1N1CCC(N2CCN(C)CC2)CC1 [LS 5-73] | 1.63 µM | 476 nM | 2240 nM | 117 nM |  | 0.0724 µM | 312 nM | 1.73 µM | 246 nM | 4.94 µM |  |  |  |  |  |  |  |  | 
C=CC(=O)Nc1cc(Nc2ncc(Cl)c(O[C@@H]3CO[C@H]4[C@@H]3OC[C@H]4O)n2)ccc1N(C)CCO [LS 5-74] | 1.52 µM | 448 nM | 3950 nM | 91.8 nM |  | 0.00426 µM | 226 nM | 1.12 µM | 181 nM | 0.00737 µM |  |  | strong and selective JAK3 kinase inhibitory activity |  |  |  |  |  | 
C=CC(=O)Nc1cccc(Nc2ncc(Cl)c(O[C@@H]3CO[C@H]4[C@@H]3OC[C@H]4O)n2)c1 [LS 5-77] |  |  |  |  |  |  | 93.9 nM | 0.556 µM |  |  |  |  | strong and selective JAK3 kinase inhibitory activity | 1.4 µM | 447 nM | 1660 nM | 103 nM | 106 nM | 0.00125 µM and 0.00239 µM
CN(C)C/C=C/C(=O)Nc1cc(Nc2ncc(Cl)c(O[C@@H]3CO[C@H]4[C@@H]3OC[C@H]4O)n2)ccc1N1CCC(N2CCN(C)CC2)CC1 [LS 5-81] | 2.37 µM | 1060 nM | 3050 nM | 5980 nM |  | 0.057 µM | 278 nM | 4.88 µM | 227 nM | 4.19 µM |  |  |  |  |  |  |  |  | 
C=CC(=O)Nc1cc(Nc2ncc(Cl)c(O[C@@H]3CO[C@H]4[C@@H]3OC[C@H]4O)n2)ccc1N(C)CCN(C)C [LS 5-88] |  | 81.1 nM | 111 nM | 417 nM |  | 0.00193 µM | 424 nM | 2.87 µM | 15.3 nM | 0.00225 µM |  |  |  |  |  |  |  |  | 
C=CC(=O)Nc1cc(Nc2ncc(Cl)c(O[C@@H]3CO[C@H]4[C@@H]3OC[C@H]4O)n2)ccc1N1C[C@@H]2C[C@H]1CO2 [LS 5-152, N-(2-(((1S,4S)-2-oxa-5-azabicyclic[2.2.1]heptane-5-yl)-5-(5-chloro-4-(((3R,3aR,6R, 6aR)-6-hydroxyhexahydrofurano[3,2-b]furan-3-yl)oxygen)pyrimidin-2-yl)amino)phenyl) acrylamide] |  | 428 nM | 288 nM | 47.2 nM |  | 0.0015 µM | 148 nM | 0.19 µM | 19.6 nM | 0.00129 µM |  |  |  |  |  |  |  |  | 
